# Data reported in patent publication US8895745B2, “Bicyclic heterocyclic compounds as FGFR inhibitors” (Astex Therapeutics Limited, priority 2006, dated 2014).
# Structures can show the parent of a compound that is named as a salt.
# Test system: LP-1 cell line
# Assay: Cell-based pERK ELISA method, LP-1 cells
# Settings: Homo sapiens, LP-1, read-out: IC50 less than 1 μM or at least 50% inhibition at a concentration of 1 μM, LP-1 pERK ELISA
row,Structure (SMILES),IC50
1,"CC(=O)Nc1cccc(-c2cnc3cc(-c4cccc(CC(=O)O)c4)ccn23)c1 [Example 11, {3-[3-(3-Acetylamino-phenyl)-imidazo[1,2-a]pyridin-7-yl]-phenyl}-acetic acid]",< 1 µM
2,"O=C(NCC(F)(F)F)Nc1cccc(-c2cnc3cc(-c4ccc(Cl)cc4)ccn23)c1 [Example 273, 1-{3-[7-(4-Chloro-phenyl)-imidazo[1,2-a]pyridin-3-yl]-phenyl}-3-(2,2,2-trifluoro-ethyl)-urea]",< 1 µM
3,"CCNC(=O)Nc1cccc(-c2cnc3cc(-c4cccc(OCCOC)c4)ccn23)c1 [Example 83, 1-Ethyl-3-(3-{7-[3-(2-methoxy-ethoxy)-phenyl]-imidazo[1,2-a]pyridin-3-yl}-phenyl)-urea]",< 1 µM
4,"CCNC(=O)Nc1cccc(-c2cnc3cc(-c4ccc(CN5CCC5)cc4)ccn23)c1 [Example 82, 1-{3-[7-(4-Azetidin-1-ylmethyl-phenyl)-imidazo[1,2-a]pyridin-3-yl]-phenyl}-3-ethyl-urea]",< 1 µM
5,"COc1ccn2c(-c3cccc(NC(=O)NCC(F)(F)F)c3)cnc2c1 [Example 336, 1-[3-(7-Methoxy-imidazo[1,2-a]pyridin-3-yl)-phenyl]-3-(2,2,2-trifluoro-ethyl)-urea Formate]",< 1 µM
6,"CCNC(=O)Nc1cccc(-c2cnc3cc(-c4ccsc4)ccn23)c1 [Example 115, 1-Ethyl-3-[3-(7-thiophen-3-yl-imidazo[1,2-a]pyridine-3-yl)-phenyl]-urea formate salt]",< 1 µM
7,"CCNC(=O)Nc1cccc(-c2cnn3cc(-c4ccc(F)cc4)cnc23)c1 [Example 111, 1-Ethyl-3-{3-[6-(4-fluoro-phenyl)-pyrazolo[1,5-a]pyrimidin-3-yl]-phenyl}-urea]",< 1 µM
8,"CCNC(=O)Nc1cccc(-c2cnc3cc(-c4cccc(C(=O)N5CCOCC5)c4)ccn23)c1 [Example 36, 1-Ethyl-3-(3-{7-[3-(morpholine-4-carbonyl)-phenyl]-imidazo[1,2-a]pyridin-3-yl}-phenyl)-urea]",< 1 µM
9,"CCNC(=O)Nc1cc(-c2cnc3cc(-c4ccc(F)cc4)ccn23)ccc1F [Example 266, 1-Ethyl-3-{2-fluoro-5-[7-(4-fluoro-phenyl)-imidazo[1,2-a]pyridin-3-yl]-phenyl}-urea]",< 1 µM
10,"O=C(NCC(F)(F)F)Nc1cccc(-c2cnc3cc(-c4ccc(F)cc4F)ccn23)c1 [Example 269, 1-{3-[7-(2,4-Difluoro-phenyl)-imidazo[1,2-a]pyridin-3-yl]-phenyl}-3-(2,2,2-trifluoro-ethyl)-urea]",< 1 µM
11,"CCNC(=O)Nc1cccc(-c2cnc3cc(-c4ccc(C(C)(C)C(=O)OC)cc4)ccn23)c1 [Example 39, 2-(4-{3-[3-(3-Ethyl-ureido)-phenyl]-imidazo[1,2-a]pyridin-7-yl}-phenyl)-2-methyl-propionic acid methyl ester]",< 1 µM
12,"Cc1nn(C)c(C)c1-c1ccn2c(-c3cccc(NC(=O)NCC(F)(F)F)c3)cnc2c1 [Example 234, 1-(2,2,2-Trifluoro-ethyl)-3-{3-[7-(1,3,5-trimethyl-1H-pyrazol-4-yl)-imidazo[1,2-a]pyridin-3-yl]-phenyl}-urea]",< 1 µM
13,"CC(=O)Nc1cccc(-c2cnc3cc(-c4cccc(CN5CCOCC5)c4)ccn23)c1 [Example 9, N-{3-[7-(3-Morpholin-4-ylmethyl-phenyl)-imidazo[1,2-a]pyridin-3-yl]-phenyl}-acetamide]",< 1 µM

# Next, values leading:
row,IC50,Structure (SMILES)
1,< 1 µM,"O=C(NCC(F)(F)F)Nc1cccc(-c2cnc3cc(-c4cnco4)ccn23)c1 [Example 240, 1-[3-(7-Oxazol-5-yl-imidazo[1,2-a]pyridin-3-yl)-phenyl]-3-(2,2,2-trifluoro-ethyl)-urea]"
2,< 1 µM,"O=C(NCC(F)(F)F)Nc1cncc(-c2cnc3cc(-c4ccc(F)cc4)ccn23)c1 [Example 218, 1-{5-[7-(4-Fluoro-phenyl)-imidazo[1,2-a]pyridin-3-yl]-pyridin-3-yl}-3-(2,2,2-trifluoro-ethyl)-urea]"
3,< 1 µM,"O=C(NCC(F)(F)F)Nc1cccc(-c2cnn3cc(-c4cn[nH]c4)cnc23)c1 [Example 155, 1-{3-[6-(1H-Pyrazol-4-yl)-pyrazolo[1,5-a]pyrimidin-3-yl]-phenyl}-3-(2,2,2-trifluoro-ethyl)-urea Hydrochloride]"
4,< 1 µM,"O=C(NCC(F)(F)F)Nc1cccc(-c2cnc3cc(-c4cc(F)cc(F)c4)ccn23)c1 [Example 254, 1-{3-[7-(3,5-Difluoro-phenyl)-imidazo[1,2-a]pyridin-3-yl]-phenyl}-3-(2,2,2-trifluoro-ethyl)-urea]"
5,< 1 µM,"CCNC(=O)c1cccc(-c2ccn3c(-c4cccc(NC(=O)NCC(F)(F)F)c4)cnc3c2)c1 [Example 261, N-Ethyl-3-(3-{3-[3-(2,2,2-trifluoro-ethyl)-ureido]-phenyl}-imidazo[1,2-a]pyridin-7-yl)-benzamide Formate]"
6,< 1 µM,"CC(C)(O)c1ccc(-c2ccn3c(-c4cccc(NC(=O)NCC(F)(F)F)c4)cnc3c2)cn1 [Example 351, 1-(3-{7-[6-(1-Hydroxy-1-methyl-ethyl)-pyridin-3-yl]-imidazo[1,2-a]pyridin-3-yl}-phenyl)-3-(2,2,2-trifluoro-ethyl)-urea]"
7,< 1 µM,"CC(=O)Nc1cc(C#N)cc(-c2cnc3cc(-c4cccc(CN5CCOCC5)c4)ccn23)c1 [Example 28, N-{3-Cyano-5-[7-(3-morpholin-4-ylmethyl-phenyl)-imidazo[1,2-a]pyridin-3-yl]-phenyl}-acetamide]"
8,< 1 µM,"O=C(NCC(F)(F)F)Nc1cccc(-c2cnc3cc(N4CCOCC4)ccn23)c1 [Example 108, 1-[3-(7-Morpholin-4-yl-imidazo[1,2-a]pyridin-3-yl)-phenyl]-3-(2,2,2-trifluoro-ethyl)-urea hydrochloride salt]"
9,< 1 µM,"O=C(NCC(F)(F)F)Nc1cccc(-c2cnn3cc(-c4cccc(CN5CCOCC5)c4)cnc23)c1 [Example 189, 1-{3-[6-(3-Morpholin-4-ylmethyl-phenyl)-pyrazolo[1,5-a]pyrimidin-3-yl]-phenyl}-3-(2,2,2-trifluoro-ethyl)-urea Hydrochloride]"
10,< 1 µM,"CCNC(=O)Nc1cccc(-c2cnc3cc(-c4ccc(=O)n(C)c4)ccn23)c1 [Example 95, 1-Ethyl-3-{3-[7-(1-methyl-6-oxo-1,6-dihydro-pyridin-3-yl)-imidazo[1,2-a]pyridin-3-yl]-phenyl}-urea]"
11,< 1 µM,"O=C(NCC(F)(F)F)Nc1cccc(-c2cnc3cc(-c4cccc(C(=O)N5CCNCC5)c4)ccn23)c1 [Example 250, 1-(3-{7-[3-(Piperazine-1-carbonyl)-phenyl]-imidazo[1,2-a]pyridin-3-yl}-phenyl)-3-(2,2,2-trifluoro-ethyl)-urea hydrochloride]"
12,< 1 µM,"CCS(=O)(=O)N1CCN(c2ccn3c(-c4cccc(NC(=O)NCC(F)(F)F)c4)cnc3c2)CC1 [Example 177, 1-{3-[7-(4-Ethanesulfonyl-piperazin-1-yl)-imidazo[1,2-a]pyridin-3-yl]-phenyl}-3-(2,2,2-trifluoro-ethyl)-urea hydrochloride salt]"
13,< 1 µM,"O=C(NCC(F)F)Nc1cccc(-c2cnc3cc(-c4ccc(F)cc4)ccn23)c1 [Example 229, 1-(2,2-Difluoro-ethyl)-3-{3-[7-(4-fluoro-phenyl)-imidazo[1,2-a]pyridin-3-yl]-phenyl}-urea Hydrochloride]"
14,< 1 µM,"CCc1nnc(-c2ccn3c(-c4cccc(NC(=O)NCC(F)(F)F)c4)cnc3c2)s1 [Example 260, 1-{3-[7-(5-Ethyl-[1,3,4]thiadiazol-2-yl)-imidazo[1,2-a]pyridin-3-yl]-phenyl}-3-(2,2,2-trifluoro-ethyl)-urea]"
15,< 1 µM,"CCNC(=O)Nc1cccc(-c2cnc3cc(-c4ccc(CCN5CCOCC5)cc4)ccn23)c1 [Example 56, 1-Ethyl-3-(3-{7-[4-(2-morpholin-4-yl-ethyl)-phenyl]-imidazo[1,2-a]pyridin-3-yl}-phenyl)-urea hydro-chloride salt]"
16,< 1 µM,"COc1cc(NC(=O)NCC(F)(F)F)cc(-c2cnc3cc(-c4ccc(F)cc4)ccn23)c1 [Example 217, 1-{3-[7-(4-Fluoro-phenyl)-imidazo[1,2-a]pyridin-3-yl]-5-methoxy-phenyl}-3-(2,2,2-trifluoro-ethyl)-urea]"
17,< 1 µM,"O=C(NCC(F)(F)F)Nc1ccc(F)c(-c2cnc3cc(-c4ccc(F)cc4)ccn23)c1 [Example 253, 1-{4-Fluoro-3-[7-(4-fluoro-phenyl)-imidazo[1,2-a]pyridin-3-yl]-phenyl}-3-(2,2,2-trifluoro-ethyl)-urea]"
18,< 1 µM,"O=C(NCC(F)(F)F)Nc1cccc(-c2cnc3cc(-c4cccc(NC5CCOCC5)c4)ccn23)c1 [Example 244, 1-(3-{7-[3-(Tetrahydro-pyran-4-ylamino)-phenyl]-imidazo[1,2-a]pyridin-3-yl}-phenyl)-3-(2,2,2-trifluoro-ethyl)-urea]"
19,< 1 µM,"CCCC(=O)Nc1cccc(-c2cnc3cc(-c4ccc(F)cc4)ccn23)c1 [Example 66, N-{3-[7-(4-Fluoro-phenyl)-imidazo[1,2-a]pyridin-3-yl]-phenyl}-butyramide]"
20,< 1 µM,"CCOc1ccn2c(-c3cccc(NC(=O)NCC(F)(F)F)c3)cnc2c1 [Example 337, 1-[3-(7-Ethoxy-imidazo[1,2-a]pyridin-3-yl)-phenyl]-3-(2,2,2-trifluoro-ethyl)-urea Formate]"
21,< 1 µM,"NCC(=O)Nc1cccc(-c2cnc3cc(-c4ccc(F)cc4)ccn23)c1 [Example 67, 2-Amino-N-{3-[7-(4-fluoro-phenyl)-imidazo[1,2-a]pyridin-3-yl]-phenyl}-acetamide formate salt]"

# Same assay, conditions: Homo sapiens, LP-1, read-out: LP-1 pERK ELISA (μM)
row,IC50,Structure (SMILES)
1,0.019 µM,"O=C(NCC(F)(F)F)Nc1cccc(-c2cnc3cc(-c4nncs4)ccn23)c1 [Example 384, 1-[3-(7-[1,3,4]Thiadiazol-2-yl-imidazo[1,2-a]pyridin-3-yl)-phenyl]-3-(2,2,2-trifluoro-ethyl)-urea]"
2,0.0157 µM,"CSc1nnc(-c2ccn3c(-c4cccc(NC(=O)NCC(F)(F)F)c4)cnc3c2)o1 [Example 354, 1-{3-[7-(5-Methylsulfanyl-[1,3,4]oxadiazol-2-yl)-imidazo[1,2-a]pyridin-3-yl]-phenyl}-3-(2,2,2-trifluoro-ethyl)-urea]"
